According to BindingDB's records for doi:10.1007/s10822-022-00478-x (Roche Innovation Center Basel, F. Hoffmann-La Roche Ltd., 2022):

biological target: cAMP and cAMP-inhibited cGMP 3',5'-cyclic phosphodiesterase 10A (Homo sapiens, UniProt Q9Y233); assay: PDE10A assay
Protocol: Compounds were diluted in 20 mM HEPES/NaOH (pH 7.5), 10 mM MgCl2 and 0.05 mg/ml bovine serum albumin. A fixed amount of 2 ng/well human PDE10A enzyme was added and incubated at room temperature for 15 min under agitation. The reaction was started by the addition of the substrate cocktail [3H]cGMP (Perkin Elmer NET337001MC, S.A. 13.5 Ci/mmol) / cGMP at a final concentration of 50 nM and incubated for an additional 15 min. The reaction was stopped by the addition of 0.5 mg/well of Y-Si SPA beads. The plates were shaken for 1 h, followed by a brief centrifugation (170 g for 1 min). The radioactivity bound to the beads was estimated using a TopCount (Perkin-Elmer). For the determination of IC50 values, a four parameters logistics equation was used. pIC50 is defined as − log10(IC50).

| SMILES | IC50 |
| --- | --- |
| Cn1cc(-c2ccccc2)nc1COc1nc(OC2CCOCC2)c2cc(Cl)ccc2n1 [Roche-Dataset for PDE10A, Compound 100] | 16 nM |
| O=C(Nc1ccn2nc(-c3ccccc3)nc2c1)c1cc(Cl)nc(NC2CC2)c1 [Roche-Dataset for PDE10A, Compound 101] | 6.12 nM |
| Cn1cc(-c2ccccc2)nc1COc1cc(N2CCOCC2)nc(-c2ccn[nH]2)n1 [Roche-Dataset for PDE10A, Compound 108] | 371 nM |
| CN(C(=O)c1cnn(C)c1C(=O)N[C@@H]1CCn2c(nc(-c3ccccc3)c2Cl)C1)C1CC1 [Roche-Dataset for PDE10A, Compound 110] | 52 nM |
| COCCN(C)C(=O)c1cnn(C)c1C(=O)N[C@@H]1CCn2cc(-c3ccccc3)nc2C1 [Roche-Dataset for PDE10A, Compound 112] | 34 nM |
| Cc1cccc(-c2cn3c(n2)C[C@H](NC(=O)c2c(C(=O)N(C)C4CC4)cnn2C)CC3)c1 [Roche-Dataset for PDE10A, Compound 114] | 8.53 nM |
| CC(C)Oc1cc(C(=O)Nc2ccn3nc(-c4ccccc4)nc3c2)cc(Cl)n1 [Roche-Dataset for PDE10A, Compound 116] | 65 nM |
| COc1c(Cl)ccc2nc(CCc3nc(-c4ccccc4)cn3C)[nH]c(=O)c12 [Roche-Dataset for PDE10A, Compound 123] | 33 nM |
| Cc1nc(CCc2nc(-c3ccccc3)cn2C)nc2ccccc12 [Roche-Dataset for PDE10A, Compound 129] | 5.25 nM |
| O=C(Nc1ccn2nc(-c3ccccc3)nc2c1)c1c(C(=O)N2CCC2)cnn1CCF [Roche-Dataset for PDE10A, Compound 131] | 1340 nM |
| O=C(Nc1ccn2nc(-c3ccccc3)nc2c1)c1cc(Cl)nc(N2CCCC2)c1 [Roche-Dataset for PDE10A, Compound 132] | 48 nM |
| CCN(C)C(=O)c1cnn(C)c1C(=O)N[C@@H]1CCn2cc(-c3cccc(OC)c3)nc2C1 [Roche-Dataset for PDE10A, Compound 136] | 1730 nM |
| COC1CN(C(=O)c2cnn(C)c2C(=O)Nc2ccn3nc(-c4ccccc4)nc3c2)C1 [Roche-Dataset for PDE10A, Compound 139] | 25 nM |
| Cc1cccc(-c2cn3c(n2)C[C@H](NC(=O)c2c(C(=O)N4CCC4)cnn2C)CC3)c1 [Roche-Dataset for PDE10A, Compound 141] | 7.36 nM |
| CCN(C)C(=O)c1c(C(=O)Nc2ccn3cc(-c4ccccc4)nc3n2)cnn1C [Roche-Dataset for PDE10A, Compound 144] | 10000 nM |
| COCCN(C)C(=O)c1cnn(C)c1C(=O)Nc1ccn2cc(-c3ccnc(F)c3)nc2n1 [Roche-Dataset for PDE10A, Compound 147] | 780 nM |
| COc1cccc(-c2cn3c(n2)C[C@H](NC(=O)c2c(C(=O)N4CCC4)cnn2C)CC3)c1 [Roche-Dataset for PDE10A, Compound 148] | 910 nM |
| O=C1c2ccccc2C(=O)N1CCc1nc(-c2ccccc2)cs1 [Roche-Dataset for PDE10A, Compound 150] | 342 nM |
| CNC(=O)c1cc2[nH]c(-c3ccccc3)nc2cc1NC(=O)c1oc(COCc2ccccc2)nc1C [Roche-Dataset for PDE10A, Compound 152] | 51 nM |

| SMILES | IC50 |
| --- | --- |
| Cn1ncc(C(=O)N2CCC2)c1C(=O)N[C@@H]1CCn2cc(-c3cccc(Cl)c3)nc2C1 [Roche-Dataset for PDE10A, Compound 161] | 6.59 nM |
| CCc1nc(C)c(C(=O)Nc2cc3nc(-c4ccccc4)[nH]c3cc2C(=O)NCC2(CO)COC2)o1 [Roche-Dataset for PDE10A, Compound 163] | 7.27 nM |
| Cc1nnc2c(C(=O)NCCc3nc(-c4ccccc4)cn3C)cccn12 [Roche-Dataset for PDE10A, Compound 166] | 95 nM |
| CN(C)c1cc(C(=O)Nc2ccn3nc(-c4ccccc4)nc3c2)cc(Cl)n1 [Roche-Dataset for PDE10A, Compound 167] | 131 nM |
| Cn1cc(-c2ccccc2)nc1CCc1nc2ccccc2c(=O)[nH]1 [Roche-Dataset for PDE10A, Compound 170] | 60 nM |
| Cn1ncc(-c2ccccc2)c1C(=O)Nc1ccn2nc(-c3ccccc3)nc2c1 [Roche-Dataset for PDE10A, Compound 172] | 131 nM |
| Cc1c(-c2ccccc2)nc2n1CC[C@@H](NC(=O)c1c(C(=O)N3CCC3)cnn1C)C2 [Roche-Dataset for PDE10A, Compound 173] | 11 nM |
| CCOC(=O)c1cnn(C)c1C(=O)Nc1ccn2nc(-c3cccc(F)c3)nc2c1 [Roche-Dataset for PDE10A, Compound 175] | 46 nM |
| O=C1c2ccccc2C(=O)N1CCc1csc(-c2ccccc2)n1 [Roche-Dataset for PDE10A, Compound 177] | 2520 nM |
| Cn1cc(-c2ccccc2)nc1/C=C/c1ccc2ccccc2n1 [Roche-Dataset for PDE10A, Compound 180] | 271 nM |
| O=C(NCCCc1noc(-c2ccccc2)n1)c1nc(C2CC2)cnc1Nc1cncnc1 [Roche-Dataset for PDE10A, Compound 181] | 495 nM |
| Cn1cc(-c2ccccc2)nc1CCNC(=O)c1cccn2cnnc12 [Roche-Dataset for PDE10A, Compound 182] | 392 nM |
| Cn1cnc(C(=O)N2CCC2)c1C(=O)Nc1ccn2nc(-c3ccccc3)nc2c1 [Roche-Dataset for PDE10A, Compound 183] | 21 nM |
| COc1cc(-c2nc3cc(NC(=O)c4c(C(=O)N5CCC5)cnn4C)ccn3n2)ccn1 [Roche-Dataset for PDE10A, Compound 185] | 4.73 nM |
| CN(CCF)C(=O)c1cnn(C)c1C(=O)N[C@@H]1CCn2cc(-c3ccccc3)nc2C1 [Roche-Dataset for PDE10A, Compound 190] | 205 nM |
| Cn1cc(-c2ccccc2)nc1COc1ncc(C2CC2)nc1C(=O)NCC1CC1 [Roche-Dataset for PDE10A, Compound 191] | 221 nM |
| CN(C(=O)c1cnn(C)c1C(=O)N[C@@H]1CCn2cc(-c3ccccc3OC(F)F)nc2C1)C1CC1 [Roche-Dataset for PDE10A, Compound 192] | 7.98 nM |
| Cn1ncc(C(=O)N2C[C@@H]3C[C@H]2CO3)c1C(=O)Nc1ccn2nc(N3CCOCC3)nc2c1 [Roche-Dataset for PDE10A, Compound 193] | 128 nM |

The next molecules have a lower IC50 than those just listed; values first:

| IC50 | SMILES |
| --- | --- |
| 4.3 nM | CN(C(=O)c1cnn(C)c1C(=O)N[C@@H]1CCn2cc(-c3ccccc3)nc2C1)C1CC1 [Roche-Dataset for PDE10A, Compound 133] |
| 3.98 nM | Cn1ncc(C(=O)N(CCO)CCO)c1C(=O)Nc1ccn2nc(-c3ccccc3)nc2c1 [Roche-Dataset for PDE10A, Compound 125] |
| 3.53 nM | CCc1nc(C)c(C(=O)Nc2cc3nc(-c4ccccc4)[nH]c3cc2C(=O)NCC2(C)COC2)o1 [Roche-Dataset for PDE10A, Compound 178] |
| 3.37 nM | CCc1cc(C(F)(F)F)c2nc(CCc3nc(N4CCCC4)nn3C)nn2c1C [Roche-Dataset for PDE10A, Compound 171] |
| 2.74 nM | Cc1c(Cl)cc(C(F)(F)F)c2nc(/C=C/c3nc(N4CCCC4)nn3C)nn12 [Roche-Dataset for PDE10A, Compound 154] |
| 2.35 nM | O=C(N[C@@H]1C[C@@H](CO)N(c2ccc(Cl)cn2)C1)c1nc(C2CC2)ccc1Nc1cncnc1 [Roche-Dataset for PDE10A, Compound 118] |
| 2.11 nM | O=C(NCCc1cnc(-c2ccccc2)[nH]1)c1nc(C2CC2)ccc1Nc1cncnc1 [Roche-Dataset for PDE10A, Compound 102] |
| 1.88 nM | Cc1c(C(F)(F)F)nc2ccc(C#Cc3nc(-c4ccccc4)cn3C)nn12 [Roche-Dataset for PDE10A, Compound 106] |
| 1.67 nM | Cc1c(Cl)cc(C(F)F)c2nc(CCc3nc(N4CCCC4)nn3C)nn12 [Roche-Dataset for PDE10A, Compound 187] |
| 1.1 nM | Cc1c(Cl)cc(C(F)(F)F)c2nc(CCc3nc(N4CCCC4)nn3C)nn12 [Roche-Dataset for PDE10A, Compound 157] |
| 1.09 nM | COc1cccc(-c2nc3cc(NC(=O)c4c(C(=O)N5CCC5)cnn4C)ccn3n2)n1 [Roche-Dataset for PDE10A, Compound 160] |
| 1.06 nM | Cn1ncc(C(=O)N2CCC2)c1C(=O)Nc1ccn2nc(-c3cccc(F)c3)nc2c1 [Roche-Dataset for PDE10A, Compound 140] |
| 0.77 nM | Cn1ncc(C(=O)N2CCC2)c1C(=O)Nc1ccc2sc(-c3ccccc3)nc2c1 [Roche-Dataset for PDE10A, Compound 174] |
| 0.7 nM | Cn1ncc(C(=O)N2CCC2)c1C(=O)Nc1cn(-c2ccc3ccccc3n2)cn1 [Roche-Dataset for PDE10A, Compound 137] |
| 0.6 nM | COc1ccccc1-c1nc2cc(NC(=O)c3c(C(=O)N4CCC4)cnn3C)ccn2n1 [Roche-Dataset for PDE10A, Compound 120] |
| 0.5 nM | Cc1c(Cl)cc(OCC(F)(F)F)c2nc(CCc3nc(N4CCCC4)nn3C)nn12 [Roche-Dataset for PDE10A, Compound 119] |
| 0.45 nM | Cn1c(Cl)nc(C(=O)N2CCC2)c1C(=O)Nc1ccn2nc(-c3ccccc3)nc2c1 [Roche-Dataset for PDE10A, Compound 115] |
| 0.43 nM | Cc1c(Br)cc(C(F)(F)F)c2nc(CCc3nc(N4CCCC4)nn3C)nn12 [Roche-Dataset for PDE10A, Compound 135] |
| 0.36 nM | Cn1ncc(C(=O)N2CC(F)C2)c1C(=O)Nc1ccn2nc(-c3ccccc3)nc2c1 [Roche-Dataset for PDE10A, Compound 165] |
| 0.22 nM | CNC(=O)c1cn2cc(-c3ccccc3)nc2cc1NC(=O)c1nc(C2CC2)ccc1Nc1cncnc1 [Roche-Dataset for PDE10A, Compound 184] |
| 0.17 nM | COCCOc1cc(Cl)c(C)n2nc(CCc3nc(N4CCCC4)nn3C)nc12 [Roche-Dataset for PDE10A, Compound 146] |
